Assay results published in patent US12134611B2, “Compounds and compositions for treating conditions associated with NLRP activity” (Novartis AG, priority 2018, dated 2024).

target: T1, hNLRP3 (Homo sapiens, UniProt Q96P20); test: IL-1β production in PMA-differentiated THP-1 cells stimulated with gramicidin (hTHP-1 assay); type: cell-based; conditions: read-out: NLRP3 Antagonist, hNLRP3 (THP-1, IL-1b) Normalized: GeoMean IC50
T1 construct: THP-1 cells were purchased from the American Type Culture Collection; host or cells: THP-1 cells, PMA-differentiated, stimulated with gramicidin
T1 sequence (Q96P20 whole entry): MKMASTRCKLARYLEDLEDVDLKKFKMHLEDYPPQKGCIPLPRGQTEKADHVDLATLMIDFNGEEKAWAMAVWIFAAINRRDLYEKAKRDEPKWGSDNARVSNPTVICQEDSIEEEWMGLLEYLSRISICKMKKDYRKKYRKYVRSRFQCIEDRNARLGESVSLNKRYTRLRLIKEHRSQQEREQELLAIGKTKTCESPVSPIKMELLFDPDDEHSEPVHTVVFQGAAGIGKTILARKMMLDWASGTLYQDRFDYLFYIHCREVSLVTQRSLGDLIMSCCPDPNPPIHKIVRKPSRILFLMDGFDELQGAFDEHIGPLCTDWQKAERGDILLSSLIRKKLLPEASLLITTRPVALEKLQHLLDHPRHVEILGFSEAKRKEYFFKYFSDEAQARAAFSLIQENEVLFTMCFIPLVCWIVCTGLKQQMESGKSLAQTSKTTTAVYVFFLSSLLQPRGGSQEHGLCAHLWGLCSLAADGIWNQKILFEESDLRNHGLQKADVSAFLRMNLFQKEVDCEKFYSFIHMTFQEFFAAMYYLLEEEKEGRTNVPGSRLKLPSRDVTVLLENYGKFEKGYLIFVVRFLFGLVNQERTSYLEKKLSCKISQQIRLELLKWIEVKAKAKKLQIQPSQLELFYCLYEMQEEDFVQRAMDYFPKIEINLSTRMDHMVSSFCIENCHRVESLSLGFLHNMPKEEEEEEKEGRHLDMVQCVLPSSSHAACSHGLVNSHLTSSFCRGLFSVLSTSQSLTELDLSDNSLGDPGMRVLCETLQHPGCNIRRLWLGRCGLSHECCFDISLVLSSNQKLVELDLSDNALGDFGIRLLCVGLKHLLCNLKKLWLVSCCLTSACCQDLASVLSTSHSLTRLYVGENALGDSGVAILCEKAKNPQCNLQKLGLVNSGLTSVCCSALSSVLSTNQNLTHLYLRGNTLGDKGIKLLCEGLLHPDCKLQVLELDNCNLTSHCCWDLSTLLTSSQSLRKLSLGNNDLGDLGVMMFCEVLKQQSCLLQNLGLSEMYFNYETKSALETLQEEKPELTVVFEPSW

SMILES	IC50
CC(O)(CO)c1ccc2c(c1)S(=O)(=NC(=O)Nc1c3c(cc4c1CCC4)CCC3)NC2=O (stereo not drawn) [Compound 208, 1-(6-(1,2-dihydroxypropan-2-yl)-1-oxido-3-oxo-2,3-dihydro-1l4-benzo[d]isothiazol-1-ylidene)-3-(1,2,3,5,6,7-hexahydro-s-indacen-4-yl)urea]	0.04 to 0.2 µM
COC(=O)Cc1ccc2c(c1)S(=O)(=NC(=O)Nc1c3c(cc4c1CCC4)CCC3)NC2=O (stereo not drawn) [Compound 209, methyl 2-(1-(((1,2,3,5,6,7-hexahydro-s-indacen-4-yl)carbamoyl)imino)-1-oxido-3-oxo-2,3-dihydro-1H-1l4-benzo[d]isothiazol-6-yl)acetate]	5 to 30 µM
O=C(N=S1(=O)NC(=O)c2ccc(-n3cccn3)cc21)Nc1c2c(cc3c1CCC3)CCC2 (stereo not drawn) [Compound 211, 1-(1,2,3,5,6,7-hexahydro-s-indacen-4-yl)-3-(1-oxido-3-oxo-6-(1H-pyrazol-1-yl)-2,3-dihydro-1l4-benzo[d]isothiazol-1-ylidene)urea]	> 30 µM
CNC(=O)c1ccc2c(c1)S(=O)(=NC(=O)Nc1c3c(cc4c1CCC4)CCC3)NC2=O (stereo not drawn) [Compound 213, 1-(((1,2,3,5,6,7-hexahydro-s-indacen-4-yl)carbamoyl)imino)-N-methyl-3-oxo-2,3-dihydro-1H-1l4-benzo[d]isothiazole-6-carboxamide 1-oxide]	1 to 5 µM
CN(C)C(=O)c1ccc2c(c1)S(=O)(=NC(=O)Nc1c3c(cc4c1CCC4)CCC3)NC2=O (stereo not drawn) [Compound 214, 1-(((1,2,3,5,6,7-hexahydro-s-indacen-4-yl)carbamoyl)imino)-N,N-dimethyl-3-oxo-2,3-dihydro-1H-1l4-benzo[d]isothiazole-6-carboxamide 1-oxide]	5 to 30 µM
O=C(N=S1(=O)NC(=O)c2ccc(CO)cc21)Nc1c2c(cc3c1CCC3)CCC2 (stereo not drawn) [Compound 216, 1-(1,2,3,5,6,7-hexahydro-s-indacen-4-yl)-3-(6-(hydroxymethyl)-1-oxido-3-oxo-2,3-dihydro-1l4-benzo[d]isothiazol-1-ylidene)urea]	0.2 to 1 µM
COCc1ccc2c(c1)S(=O)(=NC(=O)Nc1c3c(cc4c1CCC4)CCC3)NC2=O (stereo not drawn) [Compound 217, 1-(1,2,3,5,6,7-hexahydro-s-indacen-4-yl)-3-(6-(methoxymethyl)-1-oxido-3-oxo-2,3-dihydro-1l4-benzo[d]isothiazol-1-ylidene)urea]	0.2 to 1 µM
O=C(N=S1(=O)NC(=O)c2ccc(CNCC3CC3)cc21)Nc1c2c(cc3c1CCC3)CCC2 (stereo not drawn) [Compound 218, 1-(6-(((cyclopropylmethyl)amino)methyl)-1-oxido-3-oxo-2,3-dihydro-1l4-benzo[d]isothiazol-1-ylidene)-3-(1,2,3,5,6,7-hexahydro-s-indacen-4-yl)urea]	0.2 to 1 µM
O=C(N=S1(=O)NC(=O)c2cccnc21)Nc1c2c(cc3c1CCC3)CCC2 (stereo not drawn) [Compound 223, 1-(1,2,3,5,6,7-hexahydro-s-indacen-4-yl)-3-(1-oxido-3-oxo-2,3-dihydro-1l4-isothiazolo[5,4-b]pyridin-1-ylidene)urea]	5 to 30 µM
CC(C)(O)c1cc2c(s1)S(=O)(=NC(=O)Nc1c3c(cc4c1CCC4)CCC3)NC2=O (stereo not drawn) [Compound 229, 1-(1,2,3,5,6,7-hexahydro-s-indacen-4-yl)-3-(5-(2-hydroxypropan-2-yl)-1-oxido-3-oxo-2,3-dihydro-1l4-thieno[3,2-d]isothiazol-1-ylidene)urea]	5 to 30 µM
CC(C)(O)c1cccc(C2CC(=O)NS2(=O)=NC(=O)Nc2c3c(cc4c2CCC4)CCC3)c1 (stereo not drawn) [Compound 253, 1-(1,2,3,5,6,7-hexahydro-s-indacen-4-yl)-3-(5-(3-(2-hydroxypropan-2-yl)phenyl)-1-oxido-3-oxo-1l6-isothiazolidin-1-ylidene)urea]	0.2 to 1 µM
O=C(N=S1(=O)CCC(Cc2ccccc2)C(=O)N1)Nc1c2c(cc3c1CCC3)CCC2 (stereo not drawn) [Compound 266, 1-(4-benzyl-1-oxido-3-oxo-1l6,2-thiazinan-1-ylidene)-3-(1,2,3,5,6,7-hexahydro-s-indacen-4-yl)urea]	5 to 30 µM
